Test results taken from ChEMBL document CHEMBL5331077, “Combining pharmacophore models derived from DNA-encoded chemical libraries with structure-based exploration to predict Tankyrase 1 inhibitors” (Eur J Med Chem, 2023).
Calls of active or inactive are those of the source. No cut-off for these calls is given here.

Assays:
[1] = biological target: T1, Protein mono-ADP-ribosyltransferase PARP11 (Homo sapiens) (UniProt Q9NR21); test: Inhibition of PARP11 (unknown origin)
T1 sequence (whole entry): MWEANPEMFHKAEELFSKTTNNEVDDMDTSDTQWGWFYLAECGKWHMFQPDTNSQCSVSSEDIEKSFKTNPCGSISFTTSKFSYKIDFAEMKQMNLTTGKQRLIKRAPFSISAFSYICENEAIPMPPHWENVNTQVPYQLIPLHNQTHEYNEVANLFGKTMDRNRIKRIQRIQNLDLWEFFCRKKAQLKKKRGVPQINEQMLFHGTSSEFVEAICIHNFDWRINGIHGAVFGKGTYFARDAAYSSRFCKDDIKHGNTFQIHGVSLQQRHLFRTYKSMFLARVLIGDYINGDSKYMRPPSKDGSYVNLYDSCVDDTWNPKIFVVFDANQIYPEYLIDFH

[2] = biological target: T2, Protein mono-ADP-ribosyltransferase PARP15 (Homo sapiens) (UniProt Q460N3); test: Inhibition of PARP15 (unknown origin)
T2 sequence (whole entry): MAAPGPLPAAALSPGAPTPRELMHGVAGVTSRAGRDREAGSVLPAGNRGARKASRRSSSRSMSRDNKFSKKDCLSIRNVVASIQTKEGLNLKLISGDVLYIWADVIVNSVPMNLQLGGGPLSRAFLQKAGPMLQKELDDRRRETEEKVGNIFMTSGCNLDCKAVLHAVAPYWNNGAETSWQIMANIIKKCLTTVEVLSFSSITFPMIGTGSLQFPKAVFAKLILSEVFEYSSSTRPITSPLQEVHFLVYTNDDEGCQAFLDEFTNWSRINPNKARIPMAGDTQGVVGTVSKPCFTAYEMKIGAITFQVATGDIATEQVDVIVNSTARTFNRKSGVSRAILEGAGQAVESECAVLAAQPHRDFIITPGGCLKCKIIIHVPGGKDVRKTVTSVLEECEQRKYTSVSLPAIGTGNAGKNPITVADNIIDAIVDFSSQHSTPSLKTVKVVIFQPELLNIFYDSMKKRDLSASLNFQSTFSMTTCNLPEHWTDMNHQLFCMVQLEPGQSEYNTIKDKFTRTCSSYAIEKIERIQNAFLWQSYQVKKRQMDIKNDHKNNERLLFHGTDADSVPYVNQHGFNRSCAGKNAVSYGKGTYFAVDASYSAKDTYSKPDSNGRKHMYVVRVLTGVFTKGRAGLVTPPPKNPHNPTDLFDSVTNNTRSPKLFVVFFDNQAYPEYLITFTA

[3] = biological target: T3, Protein mono-ADP-ribosyltransferase PARP3 (Homo sapiens) (UniProt Q9Y6F1); test: Inhibition of PARP3 (unknown origin)
T3 sequence (whole entry): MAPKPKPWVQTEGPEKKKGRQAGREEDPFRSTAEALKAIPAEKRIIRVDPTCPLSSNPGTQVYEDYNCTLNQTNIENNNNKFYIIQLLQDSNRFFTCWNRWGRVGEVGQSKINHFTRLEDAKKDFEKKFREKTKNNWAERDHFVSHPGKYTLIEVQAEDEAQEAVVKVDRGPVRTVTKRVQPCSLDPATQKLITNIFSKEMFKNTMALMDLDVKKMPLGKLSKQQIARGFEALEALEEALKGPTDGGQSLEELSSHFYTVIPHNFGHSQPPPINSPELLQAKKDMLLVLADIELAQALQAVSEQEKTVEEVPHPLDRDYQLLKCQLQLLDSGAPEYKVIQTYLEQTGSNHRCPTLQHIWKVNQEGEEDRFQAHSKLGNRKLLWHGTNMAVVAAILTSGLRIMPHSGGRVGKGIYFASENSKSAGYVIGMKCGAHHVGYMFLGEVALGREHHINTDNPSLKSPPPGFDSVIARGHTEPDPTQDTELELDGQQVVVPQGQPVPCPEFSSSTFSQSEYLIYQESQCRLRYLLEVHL

[4] = biological target: Protein mono-ADP-ribosyltransferase PARP6 (Homo sapiens) (UniProt Q2NL67); test: Inhibition of PARP6 (unknown origin)
[5] = biological target: T4, Protein mono-ADP-ribosyltransferase PARP12 (Homo sapiens) (UniProt Q9H0J9); test: Inhibition of PARP12 (unknown origin)
T4 sequence (whole entry): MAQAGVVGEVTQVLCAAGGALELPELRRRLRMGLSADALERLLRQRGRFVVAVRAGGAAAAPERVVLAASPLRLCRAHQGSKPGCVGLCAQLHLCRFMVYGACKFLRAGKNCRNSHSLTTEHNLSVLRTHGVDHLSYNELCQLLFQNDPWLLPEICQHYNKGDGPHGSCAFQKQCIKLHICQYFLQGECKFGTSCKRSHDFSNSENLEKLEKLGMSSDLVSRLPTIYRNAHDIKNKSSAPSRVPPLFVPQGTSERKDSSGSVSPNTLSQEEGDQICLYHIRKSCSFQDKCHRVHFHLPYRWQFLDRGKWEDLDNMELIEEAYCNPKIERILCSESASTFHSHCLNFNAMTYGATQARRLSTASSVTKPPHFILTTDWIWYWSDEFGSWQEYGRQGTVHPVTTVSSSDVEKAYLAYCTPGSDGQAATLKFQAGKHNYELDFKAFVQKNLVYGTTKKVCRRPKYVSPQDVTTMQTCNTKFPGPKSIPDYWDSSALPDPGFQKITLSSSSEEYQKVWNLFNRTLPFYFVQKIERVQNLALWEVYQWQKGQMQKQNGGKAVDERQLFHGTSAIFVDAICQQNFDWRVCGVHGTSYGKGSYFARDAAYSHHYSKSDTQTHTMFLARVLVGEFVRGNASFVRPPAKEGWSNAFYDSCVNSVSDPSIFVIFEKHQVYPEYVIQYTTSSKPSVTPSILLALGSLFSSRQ

Sequence of Protein mono-ADP-ribosyltransferase PARP6 (Homo sapiens) (Q2NL67 whole entry): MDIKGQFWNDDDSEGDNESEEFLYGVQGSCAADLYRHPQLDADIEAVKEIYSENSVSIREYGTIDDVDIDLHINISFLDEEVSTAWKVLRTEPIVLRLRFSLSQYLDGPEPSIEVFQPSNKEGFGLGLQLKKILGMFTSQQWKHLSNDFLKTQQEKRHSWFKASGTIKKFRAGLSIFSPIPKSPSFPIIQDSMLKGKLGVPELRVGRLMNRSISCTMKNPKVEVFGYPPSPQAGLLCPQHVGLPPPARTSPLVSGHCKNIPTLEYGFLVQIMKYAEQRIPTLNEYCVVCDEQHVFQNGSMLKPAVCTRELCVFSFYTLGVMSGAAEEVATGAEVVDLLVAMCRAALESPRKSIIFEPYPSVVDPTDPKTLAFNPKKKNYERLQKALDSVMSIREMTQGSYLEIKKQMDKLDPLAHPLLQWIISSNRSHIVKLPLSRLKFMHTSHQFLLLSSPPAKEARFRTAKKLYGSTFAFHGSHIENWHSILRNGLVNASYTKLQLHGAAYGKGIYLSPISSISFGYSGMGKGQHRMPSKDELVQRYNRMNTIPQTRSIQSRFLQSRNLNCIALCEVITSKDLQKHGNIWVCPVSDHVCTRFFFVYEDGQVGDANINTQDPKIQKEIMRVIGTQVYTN

Row | SMILES | inhibition [1] | inhibition [2] | inhibition [3] | inhibition [4] | inhibition [5]
1 | Cc1cc(OCC(=O)NCCNC(=O)c2cccc(COc3ccccc3C(N)=O)c2)c2c3c(c(=O)oc2c1)CCC3 | inactive | Active | inactive | inactive | inactive
2 | CNC(=O)[C@H](CNC(=O)CCn1c(=O)[nH]c(=O)c2ccccc21)NC(=O)c1cnc2ccccc2c1 | inactive | inactive | inactive | inactive | inactive
